Results published in patent publication US20240270762A1, “PENICILLIN-BINDING PROTEIN INHIBITORS” (priority 2021, published 2024).
≈ marks a conversion by molar mass, not a printed value. Where two headings read alike, the source gives them in different places.

Tests used:
N. gonorrhoeae WHO Q = assay: Liquid broth MIC in Fastidious broth; details: Neisseria gonorrhoeae
P. aeruginosa ATCC 35151 = assay: microbe, parasite or virus in culture; format: cell-based; details: Pseudomonas aeruginosa, ATCC35151, read-out: Minimum inhibitory concentration, P. aeruginosa ATCC 35151
N. gonorrhoeae WHO X = assay: Liquid broth MIC in Fastidious broth; details: Neisseria gonorrhoeae
[1] = test system: P. aeruginosa (ΔmexAB-oprM); assay: Broth microdilution MIC in iron-depleted CAMHB (IDM); format: cell-based; details: Pseudomonas aeruginosa; iron-depleted CAMHB (IDM); […]; read-out: Minimum inhibitory concentration, P. aeruginosa ΔmexAB-oprM
[2] = test system: N. gonorrhoeae ATCC 49226; assay: Liquid broth MIC in Fastidious broth; details: Neisseria gonorrhoeae
Experimental: Additional antibacterial testing of the series was performed in 8 reference strains of N. gonorrhoeae (ATCC 49226, FA1090, MS 11, WHO G, WHO L, WHO M, WHO K, WHO X, WHO Z, WHO Q, CDC-0197). ATCC 49226, FA1090, MS11, WHO G, WHO L, and WHO M produce wild type or wild-type like PBP2. WHO K, WHO X, WHO Z, WHO Q, and CDC-0197 produce mosaic PBP2. Liquid broth-based assays were used for antibacterial testing of PBP inhibitors in Neisseria gonorrhoeae. Briefly, cryo-preserved bacterial cultures of clinical strains were streaked for isolation on Chocolate Agar (72 g/L (2×) GC Agar Base (BD #228950) and 2% (2×) Hemoglobin was autoclaved at 121° C. for 20 minutes to sterilize. Once cooled to ˜50° C. the 2×GC Agar Base and 2× Hemoglobin solutions are combined and 1% IsoVitaleX Enrichment (BD #211876) was added to the solution). Strains were incubated at 36° C. and 5% CO2 to allow growth of colonies, 24 hours before inoculum preparation. 2-fold serial dilutions of test compounds were conducted in a 96 well plate with a final volume of 75 μL per well at 2-fold the final desired concentration in Fastidious broth (Remel #R07664). For preparation of assay inoculum, a direct suspension was prepared by aseptically swabbing 10-15 colonies from agar plates into culture tubes containing 2 mL of fresh sterile saline. After the dilution plates were set up, direct suspensions were then diluted in a cuvette containing sterile saline and the optical density was measured at 600 nm. Inocula were diluted such that 75 μL of this culture in Fastidious broth results in a starting bacterial concentration of 5×10^5 CFU/mL when added to the dilution plates. The plates were incubated for ˜24 hours at 36° C. and 5% CO2.

[3] = test system: B. thailandensis ATCC 700388; assay: microbe, parasite or virus in culture; format: cell-based; details: Burkholderia thailandensis, ATCC700388, read-out: Minimum inhibitory concentration (MIC), B. thailandensis ATCC 700388
A. baumannii CDC-0083 = assay: microbe, parasite or virus in culture; format: cell-based; details: Acinetobacter baumannii, CDC0083, read-out: MIC, A. baumannii CDC-0083
[4] = biological target: T1, PBP1a from Acinetobacter baumannii (ATCC 19606) (Acinetobacter baumannii, UniProt A0ABX6CK30); assay: Bocillin-FL fluorescence polarization competition binding, A. baumannii PBP1a; details: fluorescence polarization competition binding assay using Bocillin-FL; read-out: A. baumannii PBP1a Potency
T1 sequence (A0ABX6CK30 1-851): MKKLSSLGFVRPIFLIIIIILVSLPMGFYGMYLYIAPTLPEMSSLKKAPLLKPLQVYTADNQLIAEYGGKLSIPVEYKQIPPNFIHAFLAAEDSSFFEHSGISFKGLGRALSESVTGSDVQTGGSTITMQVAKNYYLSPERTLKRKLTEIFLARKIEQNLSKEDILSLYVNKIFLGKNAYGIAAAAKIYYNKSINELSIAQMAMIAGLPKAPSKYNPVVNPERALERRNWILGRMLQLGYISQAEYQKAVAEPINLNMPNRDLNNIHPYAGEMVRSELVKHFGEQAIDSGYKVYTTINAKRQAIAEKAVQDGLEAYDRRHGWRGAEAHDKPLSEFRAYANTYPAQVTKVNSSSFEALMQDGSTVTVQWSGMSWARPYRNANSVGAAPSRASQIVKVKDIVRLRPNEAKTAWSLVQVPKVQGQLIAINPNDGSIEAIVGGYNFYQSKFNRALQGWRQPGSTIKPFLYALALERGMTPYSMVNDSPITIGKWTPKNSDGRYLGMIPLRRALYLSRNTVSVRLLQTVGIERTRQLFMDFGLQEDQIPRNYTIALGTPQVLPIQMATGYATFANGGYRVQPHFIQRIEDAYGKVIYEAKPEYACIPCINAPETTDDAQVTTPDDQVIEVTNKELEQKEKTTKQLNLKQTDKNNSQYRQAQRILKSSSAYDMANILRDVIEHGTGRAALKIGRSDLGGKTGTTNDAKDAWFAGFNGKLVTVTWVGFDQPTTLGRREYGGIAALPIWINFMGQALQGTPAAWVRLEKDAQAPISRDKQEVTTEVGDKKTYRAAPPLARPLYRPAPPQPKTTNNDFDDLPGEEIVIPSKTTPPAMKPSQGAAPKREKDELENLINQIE
How it was run: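 Purified PBPs pre-incubated with inhibitor (E. coli PBP3 1.5 μM, 30 min; P. aeruginosa PBP3 0.75 μM, A. baumannii PBP1a 1 μM and PBP3 0.2 μM, 15 min), then Bocillin-FL 0.1 μM (0.05 μM for PBP1a) added; FP read up to 60 min. EC50 = concentration halving bound Bocillin-FL.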

[5] = read-out: Minimum Inhibitory Concentration, WHO Q
[6] = read-out: Minimum Inhibitory Concentration, WHO X
[7] = ATCC49226, read-out: Minimum Inhibitory Concentration, ATCC 49226
[8] = read-out: Minimum Inhibitory Concentration (MIC), N. gonorrhoeae WHO Q
[9] = read-out: Minimum Inhibitory Concentration (MIC), N. gonorrhoeae WHO X
[10] = ATCC49226, read-out: Minimum Inhibitory Concentration (MIC), N. gonorrhoeae ATCC 49226

Structure (SMILES) | MIC (N. gonorrhoeae WHO Q; [5]) [µg/mL] | MIC (P. aeruginosa ATCC 35151) [µg/mL] | MIC (N. gonorrhoeae WHO X; [6]) [µg/mL] | MIC [1] [µg/mL] | MIC [2, 7] [µg/mL] | MIC [3] [µg/mL] | MIC (A. baumannii CDC-0083) [µg/mL] | IC50 [4] [µM] | MIC (N. gonorrhoeae WHO Q; [8]) [µg/mL] | MIC (N. gonorrhoeae WHO X; [9]) [µg/mL] | MIC [2, 10] [µg/mL]
O=C(NCCCN1CCN(C(=O)N[C@@H](C(=O)N[C@H]2Cc3ccc(F)c(C(=O)O)c3OB2O)c2cc(F)c(O)c(O)c2Cl)C1=O)c1ccccc1 [Example 253, (R)-3-((R)-2-(3-(3-benzamidopropyl)-2-oxoimidazolidine-1-carboxamido)-2-(2-chloro-5-fluoro-3,4-dihydroxyphenyl)acetamido)-7-fluoro-2-hydroxy-3,4-dihydro-2H-benzo[e][1,2]oxaborinine-8-carboxylic acid] | 16 to 32 (≈ 22.4 to 44.7 µM) | < 1 | > 64 | < 1 | 16 to 32 (≈ 22.4 to 44.7 µM) | 2 to 4 (≈ 2.79 to 5.59 µM) | < 1 | > 250 |  |  | 
O=C(NCCN1CCN(C(=O)NC(C(=O)N[C@H]2Cc3ccc(F)c(C(=O)O)c3OB2O)c2cc(F)c(O)c(O)c2Cl)C(=O)C1=O)c1ccccc1 (stereo partly drawn) [Example 207, (3R)-3-(2-(4-(2-benzamidoethyl)-2,3-dioxopiperazine-1-carboxamido)-2-(2-chloro-5-fluoro-3,4-dihydroxyphenyl)acetamido)-7-fluoro-2-hydroxy-3,4-dihydro-2H-benzo[e][1,2]oxaborinine-8-carboxylic acid] |  | < 1 |  | < 1 |  | 8 to 16 (≈ 11 to 21.9 µM) | 2 to 4 (≈ 2.74 to 5.48 µM) | > 250 | 16 to 32 (≈ 21.9 to 43.8 µM) | > 64 | 16 to 32 (≈ 21.9 to 43.8 µM)
O=C(NCCN1CCN(C(=O)N[C@@H](C(=O)N[C@H]2Cc3ccc(F)c(C(=O)O)c3OB2O)c2cc(F)c(O)c(O)c2Cl)C(=O)C1=O)Nc1ccncc1 [Example 221, (R)-3-((R)-2-(2-chloro-5-fluoro-3,4-dihydroxyphenyl)-2-(2,3-dioxo-4-(2-(3-(pyridin-4-yl)ureido)ethyl)piperazine-1-carboxamido)acetamido)-7-fluoro-2-hydroxy-3,4-dihydro-2H-benzo[e][1,2]oxaborinine-8-carboxylic acid] |  | < 1 |  | < 1 |  | 2 to 4 (≈ 2.68 to 5.36 µM) | 32 to 64 (≈ 42.9 to 85.8 µM) | > 250 | > 64 | > 64 | 16 to 32 (≈ 21.5 to 42.9 µM)
O=C(NCCS(=O)(=O)N1CCN(C(=O)N[C@@H](C(=O)N[C@H]2Cc3ccc(F)c(C(=O)O)c3OB2O)c2cc(F)c(O)c(O)c2Cl)C1=O)Nc1cccnc1 [Example 267, (R)-3-((R)-2-(2-chloro-5-fluoro-3,4-dihydroxyphenyl)-2-(2-oxo-3-((2-(3-(pyridin-3-yl)ureido)ethyl)sulfonyl)imidazolidine-1-carboxamido)acetamido)-7-fluoro-2-hydroxy-3,4-dihydro-2H-benzo[e][1,2]oxaborinine-8-carboxylic acid] | 16 to 32 (≈ 20.5 to 40.9 µM) | < 1 | > 64 | < 1 | 16 to 32 (≈ 20.5 to 40.9 µM) | 2 to 4 (≈ 2.56 to 5.12 µM) | < 1 | > 250 |  |  | 
O=C(NCCCS(=O)(=O)N1CCN(C(=O)NC(C(=O)N[C@H]2Cc3ccc(F)c(C(=O)O)c3OB2O)c2cc(F)c(O)c(O)c2Cl)C1=O)c1ccncc1 (stereo partly drawn) [Example 272, (3R)-3-(2-(2-chloro-5-fluoro-3,4-dihydroxyphenyl)-2-(3-((3-(isonicotinamido)propyl)sulfonyl)-2-oxoimidazolidine-1-carboxamido)acetamido)-7-fluoro-2-hydroxy-3,4-dihydro-2H-benzo[e][1,2]oxaborinine-8-carboxylic acid] | 16 to 32 (≈ 20.5 to 41 µM) | < 1 | > 64 | < 1 | 16 to 32 (≈ 20.5 to 41 µM) | 2 to 4 (≈ 2.56 to 5.12 µM) | < 1 | > 250 |  |  | 
O=C(NCCS(=O)(=O)N1CCN(C(=O)N[C@H](C(=O)N[C@H]2Cc3ccc(F)c(C(=O)O)c3OB2O)c2cc(F)c(O)c(O)c2Cl)C1=O)c1nccs1 [Example 263, (R)-3-((S)-2-(2-chloro-5-fluoro-3,4-dihydroxyphenyl)-2-(2-oxo-3-((2-(thiazole-2-carboxamido)ethyl)sulfonyl)imidazolidine-1-carboxamido)acetamido)-7-fluoro-2-hydroxy-3,4-dihydro-2H-benzo[e][1,2]oxaborinine-8-carboxylic acid] | > 64 | 2 to 4 (≈ 2.59 to 5.18 µM) | > 64 | 8 to 16 (≈ 10.4 to 20.7 µM) | > 64 | 8 to 16 (≈ 10.4 to 20.7 µM) | 2 to 4 (≈ 2.59 to 5.18 µM) | > 250 |  |  | 
